Assay [1] deals with C. perfringens. Set-up: species or system broiler chickens (Cobb 500). The settings on record: in vivo.
In assay [2] the test system is Clostridium perfringens. Set-up: species or system broiler chickens (Cobb 500). The settings on record: in vivo.
For assay [3], the system named is Clostridium perfringens. In kind it is in vivo, broiler chickens. Conditions: subclinical NE.
Setting [4] is: raw data of individual birds, 0.5% egg powder, cells marked * removed as outlier.

“And” between values parts separate entries of the source, which are not always exact repeats. Equal entries are not always repeated. Where a SMILES comes first, the peptide text is derived from it. Bridges are numbered along the chain shown (N, C = ends). [ ]: non-standard residue; d: D form. The star is where a group is joined. Ileψ(thiazoline)Cys = CC[C@H](C)[C@H](N)C1=N[C@H](C(=O)*)CS1; dOrn = NCCC[C@@H](N)C(=O)O

From US10450364B2 (priority 2017, dated 2019) come the findings set out here.

For the compound `CC[C@H](C)[C@H](N)C1=N[C@H](C(=O)N[C@@H](CC(C)C)C(=O)N[C@H](CCC(=O)O)C(=O)N[C@H](C(=O)N[C@H]2CCCCNC(=O)[C@H](CC(N)=O)NC(=O)[C@@H](CC(=O)O)NC(=O)[C@H](Cc3cnc[nH]3)NC(=O)[C@@H](Cc3ccccc3)NC(=O)[C@H]([C@@H](C)CC)NC(=O)[C@@H](CCCN)NC2=O)[C@@H](C)CC)CS1` [bacitracin] ({Ileψ(thiazoline)Cys}-L[dE]IK[dOrn]I[dF]H[dD]N; lactam 4-C), in assay [1], the “% NE Mortality” value is 9.4bc %, the “Feed Intake D 0-28” value is 6.708bcd, the “Lesion Score (0-3)” value amounted to 1.3 bc and the “Weight Gain D 0-28” value turned out to be 0.648bcd. For the same compound, in assay [2], the “% NE Mortality” value is listed as 10.9bcde %, the “Feed Intake D 0-28” value is listed as 8.040bc, the “Lesion Score (0-3)” value was 1.0bc and the “Weight Gain D 0-28” value was found to be 0.590bcd.

With Virginiamycin, in assay [3] (group average, 0.5% egg powder), the “Weight gain (g) day 0-6 post challenge, Average” value is reported as 226 g and the “Weight gain (g) day 0-11 post challenge, Average” value is listed as 570 g. Also, the “Lesion Score - day 2 post challenge, Average” value in assay [3] (group average, egg powder 0.5% in feed (Vir 20 g/ton), scale 0 to 4) is reported as 0.5. Besides, in assay [3] (setting [4]), the “Weight gain (g) day 0-6 post challenge” value was 267 g and 211 g (2×) and 256 g and 252 g and 170 g and 213 g and 289 g and 162 g (2×) and 229 g and 241 g and 203 g and 157 g and 195 g and 238 g and 321 g and 233 g and 319 g and 182 g and 239 g; the “Weight gain (g) day 0-11 post challenge” value was 618 g and 554 g and 520 g and 540 g and 467 g and 479 g and 544 g and 566 g and 420 g and 552 g and 607 g and 686 g and 568 g and 723 g and 709 g. In assay [3] (raw data of individual birds, egg powder 0.5% in feed (Vir 20 g/ton), scale 0 (none) to 4 (high)), the “Lesion Score - day 2 post challenge” value is 1 (3×) and 0 (3×).
